Columns and labels:
[1] = system: PLA2R autoantibodies in anti-PLA2R positive MN patient sera; assay: BLI off-rate of MN patient sera, anti-PLA2R positive sera on immobilized peptides; type: binding, human; details: Octet Red, peptide immobilized on AR2G sensor, sera 1:100 in HEPES-T sera (10 mM HEPES, 150 mM NaCl, 0.05% Tween-20, 0.5% control sera), association 450s, dissociation 1200s, Hill fit, ten anti-PLA2R positive sera
Method: (§1) BLI experiments were conducted using an Octet Red (ForteBio, Nottingham, UK). P28mer and T28mer were diluted to 200 μg/ml in 10 mM sodium acetate, pH 4.5, and immobilized on an Octet AR2G sensor (ligand densities of 1.2 nm and 1.4 nm respectively). Patient sera were diluted 1:100 in HEPES-T sera (10 mM HEPES, 150 mM NaCl, 0.05% Tween-20 and 0.5% of a pool of human control sera). Three control normal sera were incorporated in the running buffer in order to provide the baseline binding (i.e. normalize the binding due to any spurious interaction) and allowing quantification of binding above this background. […] Sensors were incubated in MN sera for 450s (association phase) followed by HEPES-T sera for 1200s (dissociation phase). Regeneration was performed in 10 mM NaOH with three successive incubations. The peptide immobilized sensors responses to MN patient sera were calibrated against non-specific binding of each sensor to the HEPES-T sera buffer. The data were fitted to a Hill-1 plot with the inverse k value equivalent to the off rates (koff). Statistical analysis was performed using two way ANOVA multiple comparison or paired t-test as stated in the figure legends. p values of <0.05 were considered significant.

[2] = system: THSD7A autoantibodies in anti-THSD7A positive MN patient sera; assay: BLI off-rate of MN patient sera, anti-THSD7A positive sera on immobilized peptides; type: binding, human; details: for Koff (dissociation rate): BLI, Octet Red, peptide immobilized on AR2G sensor, sera 1:100 in HEPES-T sera (10 mM HEPES, 150 mM NaCl, 0.05% Tween-20, 0.5% control sera), association 450s, dissociation 1200s, Hill fit, ten anti-THSD7A positive sera
Method: as §1

[3] = system: affinity purified anti-P28mer (PLA2R autoantibodies); assay: BLI of affinity purified anti-P28mer; type: binding, human; details: immobilized peptide, antibodies eluted from P28mer beads, normalized to blank beads
Method: (§2) 2 mg of MyOne™ carboxylic acid dynabeads per condition (Invitrogen, UK) were activated using 18.75 mg/ml EDC (N-3-dimethylaminopropyl- N′-ethylcarbodiimide hydrochloride, Sigma-Aldrich). 800 μg/ml of recombinant PLA2R fragment (NC3) and peptides (P28mer, T28mer or T28mer scrambled peptide) diluted in 15 mM MES buffer pH 6 were covalently immobilized overnight at 4 °C. The conditioned beads were then deactivated using 1 M ethanolamine (Bio-Rad) for 1 h. Pooled anti-THSD7A positive MN patient sera were diluted 1:50 in PBS-T and incubated (overnight at 4 °C with agitation) with 1 mg of either blank immobilized, T28mer immobilized or T28mer scrambled peptide immobilized magnetic beads. Pooled anti-PLA2R positive MN patient sera were similarly diluted and incubated with blank immobilized, PLA2R antigen immobilized or P28mer immobilized magnetic beads. Magnetic beads from all conditions were then precipitated, the supernatants removed, and washed three times in PBS-T. Bound antibodies were eluted with 0.1 M glycine pH 2.2 and the eluates from each condition were neutralized using 1 M TrisHCl pH 8. The affinity-purified eluate from each condition was then evaluated for binding to the P28mer and T28mer by BLI. The BLI analysis was executed as stated in section 2.9.1.1. with modification of the running buffer. […]

[4] = system: affinity purified anti-T28mer (THSD7A autoantibodies); assay: BLI of affinity purified anti-T28mer; type: binding, human; details: immobilized peptide, antibodies from anti-THSD7A sera eluted from T28mer beads, normalized to blank beads
Method: as §2

[5] = system: affinity purified antibodies from PLA2R positive sera against PLA2R antigen; assay: BLI of affinity purified anti-PLA2R (against PLA2R antigen); type: binding, human; details: immobilized peptide, antibodies eluted from PLA2R antigen beads (positive control)
Method: as §2

Moab 20-2-6 [6] = assay: SPR kinetics of Moab 20-2-6 on immobilized peptides; type: binding, mouse; details: ProteOn XPR36, peptide immobilized on GLC chip, Moab 20-2-6 at 25-5 nM, Langmuir 1:1 with mass transfer, printed in Fig. 4B
From the text: Hybridoma production was undertaken by Proteogenix SAS (Schiltigheim, France). Mice were immunized with a fragment of human PLA2R protein (namely NC3, comprising the first five extracellular domains, CysR-FnII-CTLD1-CTLD2-CTLD3). Following fusion of spleen cells, 34 positive supernatants were found when screened by ELISA on the NC3 protein. Ten of the original 34 positive supernatants were taken forward for cloning. Following subcloning, 5 of 10 clones were selected for purification of monoclonal antibody which included antibody 20-2-6.
Kinetics were determined using a ProteOn XPR36 (Bio-Rad, Watford, UK). The P28mer and T28mer peptides were diluted to 200 μg/ml in 10 mM sodium acetate, pH 4.5, and immobilized on a ProteOn GLC sensor chip using standard amine coupling chemistry. […] Moab 20-2-6 was diluted to 25, 20, 15, 10, 5 nM in HEPES-T and injected for 120 s at 70 μl/min. The injection was stopped and dissociation phase measured for 800s. Buffer only and a blank immobilized lanes were used as controls and subtracted. The GLC sensor was regenerated in 10 mM NaOH with two successive injections. Kinetics were determined by fitting to a Langmuir 1:1 interaction model.

anti-PLA2R positive sera = assay: Slot blotting with anti-PLA2R positive sera; type: binding, human; details: non-denaturing; 1 μg protein/peptide; sera 1:100; Fig. 2D
Method: (§3) PLA2R, CysR domain, THSD7A (R&D Systems) and TSR1 protein samples (1 μg per lane) were resolved using 4–12% BisTris gradient gels with the MES buffer system, transferred to nitrocellulose membranes and blotted using patient sera (1:100 dilution) followed by incubation with Alexa Fluor® 680-AffiniPure Goat Anti-Human IgG, Fcγ Fragment Specific (min X Bov,Hrs,Ms Sr Prot) (1:10,000 dilution; Jackson Labs). Proteins were also analyzed using Moab 20-2-6, a monoclonal anti-PLA2R mouse antibody raised against a PLA2R fragment (see 2.4.1 for further details) at dilution 1:5000. Protein bands were visualized using an Odyssey Imaging System (LI-COR) at 700 nm and the intensity settings were kept constant for all blots allowing comparison. For slot blotting, 1 μg of proteins or peptides (P28mer aa38–65 and T28mer aa75-102 synthesized by ProImmune Ltd, Oxford, UK) were blotted directly onto nitrocellulose membrane and vacuum applied. For the reducing condition, samples were diluted in 10 mM Tris pH 8 then reduced and alkylated by sequential incubation with 50 mM DTT for 1 h at 37 °C and then with 125 mM iodoacetamide for 20 min in the dark. The reduced samples along with unreduced were blotted as described above.

[7] = system: anti-THSD7A positive sera; assay: Slot blotting with anti-THSD7A positive sera; type: binding, human; details: for binding of anti-THSD7A positive sera (slot blot): non-denaturing, 1 μg protein/peptide, sera 1:100, Fig. 2D
Method: as §3

[8] = system: sera from ANCA vasculitis patients; assay: Slot blotting with ANCA vasculitis sera; type: binding, human; details: slot blot, non-reducing; 1 μg peptide; pool of 5 sera, 1:100
Method: as §3
(§4) Fig.6 - Slot blot analysis of sera from IgAN and
(§5) Hu anti-IgAN Hu anti-ANCA Ponceau
(§6) CysR P28sc CysR P28sc CysR P28sc […]

[9] = system: sera from IgA Nephropathy (IgAN) patients; assay: Slot blotting with IgA Nephropathy sera; type: binding, human; details: slot blot, non-reducing; 1 μg peptide; pool of 5 sera, 1:100
Method: as §3, §4, §5, §6

[10] = system: unrelated mouse monoclonal raised against transferrin receptor; assay: Slot blotting of peptides with unrelated mouse monoclonal; type: binding; details: slot blot, non-reducing; 1 μg peptide; antibody 1:5000
Method: as §3
(§7) Fig.10 – Specificity of Moab 20-2-6 to P28mer and T28mer.
(§8) Slot blot analysis of unrelated mouse monoclonal
(§9) Moab anti-Transferrin secondary only control […]

Moab 20-2-6 [11] = assay: Slot blotting of peptides with Moab 20-2-6; type: binding, mouse; details: non-reducing, 1 μg peptide, antibody 1:5000
Method: as §3, §7, §8, §9

[12] = Circular dichroism of the epitope peptides; type: physicochemical; details: 0.5 mg/ml; for turn content / unordered content / α-helix content / β-sheet content: CD far-UV 190–260 nm, milliQ water, 0.05-cm path, average of 10 accumulations, BeStSel
Method: Lyophilized peptides were reconstituted in milliQ water to a concentration of 2.5 mg/ml and diluted to 0.5 mg/ml. CD Far-UV (190–260 nm) spectra were recorded using a Jasco-810 spectropolarimeter. Measurements were taken every 0.2 nm in a 0.05-cm path length cell. Spectra were corrected for buffer absorbance and represent an average of 10 accumulations. Spectra were recorded in millidegrees and converted to mean residue ellipticities using the following equation deltaE = mdeg x (0.1 x mrw)/path x conc_mg/ml x 3298 (where P28mer mrw = 109.5, T28mer mrw = 107.9). Estimation of secondary structure content was then performed using BeStSel software program.

For “P28mer: known major PLA2R CysR epitope peptide, aa38-65, synthesized by ProImmune”, the “Koff (dissociation rate)” value [1] was 0.0028 s⁻¹, the “Koff (dissociation rate)” value [2] was 0.0068 s⁻¹ and the “binding of affinity purified anti-P28mer” value [3] was “bind to both epitope peptides”. The “binding of affinity purified anti-T28mer” value [4] was “bind to both epitope peptides”, the “binding of affinity purified PLA2R autoantibodies” value [5] was “bind to both epitope peptides” and the Kd (Moab 20-2-6 [6]) was 0.0887 nM. The “binding of anti-PLA2R positive sera (slot blot)” value (anti-PLA2R positive sera) was “reacted with both P28mer and T28mer”, the “binding of anti-THSD7A positive sera (slot blot)” value [7] was “reacted with both P28mer and T28mer” and the “binding of ANCA vasculitis sera” value [8] was “no binding”. The “binding of IgA Nephropathy sera” value [9] was “no binding”, the “reactivity of unrelated mouse monoclonal to peptide” value [10] was “no reactivity” and the “reactivity of Moab 20-2-6 to peptide (slot blot)” value (Moab 20-2-6 [11]) was “reactivity”. It also gave a turn content [12] of 21.3%, an unordered content [12] of 45.2% and a α-helix content [12] of 12.1%. It also gave a β-sheet content [12] of 21.3%.
In the case of “T28mer: THSD7A epitope peptide, aa75-102, located in the TSR1 domain, synthesized by ProImmune (GPGGIQTRAVWCAHVEGWTTLHTNCKQA; UniProt Q9UPZ6 75-102, looked up, fragment)”, the “Koff (dissociation rate)” value [1] is reported as 0.0009 s⁻¹, the “Koff (dissociation rate)” value [2] is reported as 0.0013 s⁻¹ and the “preference of sera THSD7A autoantibodies between peptides (by dissociation rates)” value ([2]; T28mer vs P28mer, Fig. 3B **** p value < 0.001 (two-way ANOVA)) is reported as “preferentially bind to the T28mer over P28mer”. For the same substance, the “binding of affinity purified anti-P28mer” value [3] was “bind to both epitope peptides”, the “binding of affinity purified anti-T28mer” value [4] was “bind to both epitope peptides” and the “binding of affinity purified PLA2R autoantibodies” value [5] was “bind to both epitope peptides”. For the same substance, the Kd (Moab 20-2-6 [6]) was 0.101 nM, the “binding of anti-PLA2R positive sera (slot blot)” value (anti-PLA2R positive sera) was “reacted with both P28mer and T28mer” and the “number of anti-THSD7A sera recognizing the peptide” value ([7]; native blotting, ten anti-THSD7A sera tested) was “All ten anti-THSD7A sera tested recognized the T28mer peptide”. The “binding of anti-THSD7A positive sera (slot blot)” value [7] was “reacted with both P28mer and T28mer”, the “binding of ANCA vasculitis sera” value [8] was “no binding” and the “binding of IgA Nephropathy sera” value [9] was “no binding”. The “reactivity of unrelated mouse monoclonal to peptide” value [10] was “no reactivity”, the “reactivity of Moab 20-2-6 to peptide (slot blot)” value (Moab 20-2-6 [11]) was “reactivity” and the turn content [12] was 15%. The unordered content [12] was 46.7%, the α-helix content [12] was 6.5% and the β-sheet content [12] was 31.8%. For the same substance, the “negative peak in CD spectrum” value ([12]; CD far-UV) was “around 205 nm”.
